Laboratory results: patent US20040038862A1, “Identification of new therapeutic targets for modulating bile acid synthesis” (priority 2003, published 2004)
Entries after “also recorded” stand apart in the source; their conditions may differ.

Key:
SHP-1 expression [1] = assay: SHP-1 expression in primary human hepatocytes (Northern blot); type: cell-based; details: 48 hours; GW4064 0.1-10 μM, chenodeoxycholic acid 1-100 μM
Description: (§1) Control cultures received vehicle alone. Cells were cultured for a further 48 hours prior to harvest and total RNA isolated using a commercially available reagent (Trizol, Life Technologies Inc., Gaithersburg, Md.) according to the manufacturer's instructions. Total RNA (10 μg) was resolved on a 1% agarose/2.2 M formaldehyde denaturing gel and transferred to a nylon membrane (Hybond N+, Amersham Pharmacia Biotech Inc., Piscataway, N.J.). Blots were hybridized with ^32p-labeled cDNAs corresponding to human SHP-1, human CYP7A (bases 99 to 1564, GenBank M93133), mouse SHP-1 (bases 30 to 783, GenBank L76567), or rat CYP7A (bases 235 to 460, GenBank J05460). The SHP-1 cDNA used in these experiments encodes the full-length human SHP-1 protein (amino acids 1-260) as described in Seol et al. (1996 Science 272:1336), Subsequently, blots were stripped and reprobed with a radiolabeled -actin cDNA (Clontech, Palo Alto, Calif.).

SHP-1 expression [2] = assay: SHP-1 expression in primary rat hepatocytes (Northern blot); type: cell-based; details: 48 hours; GW4064 0.1-10 μM
Description: as §1, with “Primary human hepatocytes and rat hepatocytes (1.5×10^6 cells) were cultured on […]-coated six well plates in serum-free Williams' E medium supplemented with 100 nM dexamethasone, 100 U/ml penicillin G, 100 μg/ml streptomycin, and insulin-transferrin-selenium (ITS-G, Life Technologies, Inc., Gaithersburg, Md.). […] Control” for “Control”

CYP7A expression [3] = assay: CYP7A expression in primary human hepatocytes (Northern blot); type: cell-based; details: 48 hours; GW4064 0.1-10 μM, chenodeoxycholic acid 1-100 μM
Description: as §1, with “Primary human hepatocytes and rat hepatocytes (1.5×10^6 cells) were cultured on […]-coated six well plates in serum-free Williams' E medium supplemented with 100 nM dexamethasone, 100 U/ml penicillin G, 100 μg/ml streptomycin, and insulin-transferrin-selenium (ITS-G, Life Technologies, Inc., Gaithersburg, Md.). […] Control” for “Control”

CYP7A expression [4] = assay: Liver CYP7A expression in treated rats; type: in vivo, rat; details: 30 mg/kg by gavage twice a day for 7 days
Description: This decrease was still measurable despite the fact that the animals had been maintained on a normal light cycle and sacrificed during the daytime when CYP7A levels are known to be quite low.
(§2) Male Fisher rats were obtained from Charles River Laboratories Inc. (Raleigh, N.C.) and maintained on a 12 hour light/12 hour dark cycle. Animals were allowed food and chow ad libitum. […] Livers were excised and snap-frozen in liquid nitrogen. Differential gene expression analysis was performed by Curagen Corp. (New Haven, Conn.).

human SHP-1 promoter = assay: SHP-1 promoter reporter in HepG2 cells transfected with FXR expression plasmid; type: cell-based
rodent FXR = target: T1, rodent FXR (Mus musculus, UniProt Q60641); assay: FXR transactivation in transfected CV-1 cells, hsp70 ecdysone receptor response element reporter; type: cell-based
T1 construct: expressed in transfected cells; host or cells: CV-1
T1 sequence (Q60641 1-488): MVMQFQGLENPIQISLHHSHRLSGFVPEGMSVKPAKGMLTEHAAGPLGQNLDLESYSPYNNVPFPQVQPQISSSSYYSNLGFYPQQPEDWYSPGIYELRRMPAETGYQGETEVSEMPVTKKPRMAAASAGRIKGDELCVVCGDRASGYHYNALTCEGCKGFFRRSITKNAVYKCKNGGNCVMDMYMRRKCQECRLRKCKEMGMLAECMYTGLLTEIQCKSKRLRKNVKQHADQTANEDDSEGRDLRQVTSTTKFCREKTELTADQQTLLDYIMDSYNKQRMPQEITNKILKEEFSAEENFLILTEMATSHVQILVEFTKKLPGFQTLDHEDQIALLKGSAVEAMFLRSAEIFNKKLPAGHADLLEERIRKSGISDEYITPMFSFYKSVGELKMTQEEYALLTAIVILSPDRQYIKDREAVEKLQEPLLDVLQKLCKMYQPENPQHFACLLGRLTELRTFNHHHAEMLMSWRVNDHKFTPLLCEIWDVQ
Description: The full-length coding regions for human LRH-1 (GenBank AB019246) and human SHP-1 (GenBank L76571) were amplified by PCR and cloned into pSG5, creating pSG5-hLRH-1 and pSG5-hSHP-1, respectively. A consensus Kozak sequence was created during amplification. […] Underlined residues are those which have been mutated from the wild-type sequence. […] VP16-nuclear receptor chimeras contained the 80-amino acid herpes virus VP16 transactivation domain linked to the nuclear receptor ligand binding domain in a modified pSG5 expression vector.
Transient transfection of CV-1 cells was performed as described previously (Jones, S. A. et al. 2000. Mol. Endocrinol. 14:27-39). Typically, transfection mixes contained 2-5 ng receptor expression vector, 20 ng reporter construct, and 8 ng p -actin-SPAP. The amount of DNA used in each transfection was adjusted to 80 ng with carrier plasmid (pBluescript, Stratagene, La Jolla, Calif.). Cells were maintained for 24 hours in the presence of drug (added as a 1000× stock in dimethyl sulfoxide) in DMEM/F-12 nutrient mixture containing 10% charcoal-stripped, delipidated calf serum. An aliquot of medium was assayed for SPAP activity and the cells lysed prior to determination of luciferase expression. Luciferase activities were normalized to SPAP. […]

SHP-1 expression [5] = assay: Liver SHP-1 expression in treated rats; type: in vivo, rat; details: 30 mg/kg by gavage twice a day for 7 days
Description: Direct regulation of SHP-1 by FXR was confirmed in experiments in HepG2 cells transfected with an FXR expression plasmid and reporter plasmids under the control of either the rat or human SHP-1 promoter.
as §2

rat SHP-1 promoter = assay: SHP-1 promoter reporter in HepG2 cells transfected with FXR expression plasmid; type: cell-based

Row | Compound | SHP-1 expression in human hepatocytes (SHP-1 expression [1]) | SHP-1 expression in rat hepatocytes (SHP-1 expression [2]) | CYP7A expression in human hepatocytes (CYP7A expression [3]) | CYP7A expression levels versus vehicle treated rats (CYP7A expression [4]) | reporter activity, human SHP-1 promoter (human SHP-1 promoter) | EC50 (rodent FXR) [nM] | SHP-1 expression in liver RNA versus vehicle-treated rats (SHP-1 expression [5]) | reporter activity, rat SHP-1 promoter (rat SHP-1 promoter)
1 | CC(C)c1onc(-c2c(Cl)cccc2Cl)c1COc1ccc(/C=C/c2cccc(C(=O)O)c2)c(Cl)c1 [GW4064] | markedly increased SHP-1 expression in a dose-dependent manner | markedly increased SHP-1 expression in a dose-dependent manner | decrease CYP7A expression in a dose dependent fashion; also recorded: repressed CYP7A expression at the same concentrations that were required for induction of SHP-1 expression | decrease in CYP7A expression levels | marked induction of reporter activity | 80 | six-fold increase | marked induction of reporter activity
2 | C[C@H](CCC(=O)O)[C@H]1CC[C@H]2[C@@H]3[C@H](O)C[C@@H]4C[C@H](O)CC[C@]4(C)[C@H]3CC[C@]12C [chenodeoxycholic acid, reference compound] | much less potent than GW4064 | – | repressed CYP7A expression at the same concentrations that were required for induction of SHP-1 expression | – | – | – | – | –
